Read-outs that look alike come from different tables or passages of the source.
Experiments:
Type in all cases: biochemical
[1] = target: T1, human JAK2 (a.a. 828-1132) (Homo sapiens, UniProt O60674); assay: In vitro JAK kinase assay (HTRF, phosphorylation of a biotinylated peptide), JAK2
T1 construct: JAK2 (a.a. 828-1132); His tag (N); made in house; host or cells: insect cells (baculovirus)
Outline: (§1)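 Kinase reactions ran at room temperature for 1 h with ATP matched per isoform (JAK1 90 μM, JAK2 30 μM, JAK3 3 μM). After an EDTA stop, the phosphorylated biotin-peptide was read by HTRF using Eu-Py20 and SA-APC after 40 min binding.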

[2] = target: T2, human JAK1 (a.a. 837-1142) (Homo sapiens, UniProt P23458); assay: In vitro JAK kinase assay (HTRF, phosphorylation of a biotinylated peptide), JAK1; settings: read-out: JAK1 IC50
T2 construct: human JAK1 (a.a. 837-1142); His tag (N); made in house; host or cells: insect cells (baculovirus)
T2 sequence (P23458 849-1154): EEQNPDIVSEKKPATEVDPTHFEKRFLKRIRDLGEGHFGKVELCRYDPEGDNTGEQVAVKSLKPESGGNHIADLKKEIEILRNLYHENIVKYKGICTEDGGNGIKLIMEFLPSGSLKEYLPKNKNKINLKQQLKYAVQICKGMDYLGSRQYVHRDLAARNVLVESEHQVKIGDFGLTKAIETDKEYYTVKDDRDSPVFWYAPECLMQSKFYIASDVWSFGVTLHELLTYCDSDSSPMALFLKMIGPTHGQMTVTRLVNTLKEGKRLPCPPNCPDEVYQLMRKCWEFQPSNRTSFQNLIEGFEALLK
Outline: as §1

[3] = target: TYK2 (Homo sapiens, UniProt P29597); assay: TYK2 kinase inhibition (Table A1)
Sequence of TYK2 (P29597 whole entry): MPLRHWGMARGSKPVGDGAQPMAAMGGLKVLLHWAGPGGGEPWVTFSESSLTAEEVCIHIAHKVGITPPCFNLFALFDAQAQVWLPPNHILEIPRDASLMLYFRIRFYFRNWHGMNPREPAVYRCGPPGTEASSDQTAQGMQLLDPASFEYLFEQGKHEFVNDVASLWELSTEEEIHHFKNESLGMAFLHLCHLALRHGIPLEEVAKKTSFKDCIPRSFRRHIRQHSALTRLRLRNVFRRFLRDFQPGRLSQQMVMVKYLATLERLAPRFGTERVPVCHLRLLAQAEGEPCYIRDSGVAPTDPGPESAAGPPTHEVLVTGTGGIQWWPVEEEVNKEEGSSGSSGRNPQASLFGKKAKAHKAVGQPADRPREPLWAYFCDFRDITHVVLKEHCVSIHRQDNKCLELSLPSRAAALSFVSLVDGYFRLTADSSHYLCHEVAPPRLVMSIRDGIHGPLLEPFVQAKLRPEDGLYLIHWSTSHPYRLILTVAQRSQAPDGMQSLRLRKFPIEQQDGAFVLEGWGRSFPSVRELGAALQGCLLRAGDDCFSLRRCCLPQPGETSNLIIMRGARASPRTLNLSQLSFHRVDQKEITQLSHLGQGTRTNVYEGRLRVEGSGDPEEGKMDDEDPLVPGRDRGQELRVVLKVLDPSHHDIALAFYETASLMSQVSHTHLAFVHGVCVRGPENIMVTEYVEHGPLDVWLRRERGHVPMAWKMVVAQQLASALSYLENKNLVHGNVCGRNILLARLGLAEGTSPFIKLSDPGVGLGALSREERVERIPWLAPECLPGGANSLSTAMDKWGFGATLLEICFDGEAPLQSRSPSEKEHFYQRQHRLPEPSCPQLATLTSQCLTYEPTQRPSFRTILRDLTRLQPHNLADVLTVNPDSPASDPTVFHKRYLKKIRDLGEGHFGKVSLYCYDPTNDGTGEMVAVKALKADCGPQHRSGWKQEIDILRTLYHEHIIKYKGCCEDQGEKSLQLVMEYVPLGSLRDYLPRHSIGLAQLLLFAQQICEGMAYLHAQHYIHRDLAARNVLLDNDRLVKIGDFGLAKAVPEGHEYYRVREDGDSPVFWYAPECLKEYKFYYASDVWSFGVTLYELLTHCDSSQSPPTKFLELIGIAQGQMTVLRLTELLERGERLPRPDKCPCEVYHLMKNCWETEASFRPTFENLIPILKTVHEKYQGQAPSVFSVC

[4] = target: T3, human JAK3 (a.a. 781-1124) (Homo sapiens, UniProt P52333); assay: In vitro JAK kinase assay (HTRF, phosphorylation of a biotinylated peptide), JAK3
T3 construct: JAK3 (a.a. 781-1124); His tag (N); made in house; host or cells: insect cells (baculovirus)
T3 sequence (P52333 781-1124): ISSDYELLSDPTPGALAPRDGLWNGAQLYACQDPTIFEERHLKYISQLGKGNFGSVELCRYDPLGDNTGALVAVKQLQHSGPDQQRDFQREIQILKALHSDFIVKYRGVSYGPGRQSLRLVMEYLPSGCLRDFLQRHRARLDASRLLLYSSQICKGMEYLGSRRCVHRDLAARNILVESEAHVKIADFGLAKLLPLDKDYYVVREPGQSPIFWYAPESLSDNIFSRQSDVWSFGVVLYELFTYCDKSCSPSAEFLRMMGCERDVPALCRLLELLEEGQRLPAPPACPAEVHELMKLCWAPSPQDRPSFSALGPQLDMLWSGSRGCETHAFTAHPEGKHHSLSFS
Outline: as §1

T1 sequence (O60674 828-1132): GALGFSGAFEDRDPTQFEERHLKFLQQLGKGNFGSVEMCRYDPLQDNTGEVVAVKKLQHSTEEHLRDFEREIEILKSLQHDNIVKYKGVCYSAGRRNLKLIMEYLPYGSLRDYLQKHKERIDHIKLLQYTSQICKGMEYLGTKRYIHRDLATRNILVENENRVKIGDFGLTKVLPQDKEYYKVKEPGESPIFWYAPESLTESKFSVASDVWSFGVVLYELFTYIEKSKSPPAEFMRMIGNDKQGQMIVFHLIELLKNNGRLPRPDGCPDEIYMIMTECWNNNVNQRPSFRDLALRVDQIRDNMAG

| IC50 ([1]; Table D1) | IC50 ([2]; Table D1) | IC50 ([3]; Table D1) | IC50 ([4]; Table D1) | IC50 [1] | IC50 [2] | IC50 [3] | IC50 [4] | Compound |
| --- | --- | --- | --- | --- | --- | --- | --- | --- |
| 37 nM | 42 nM | > 400 nM | > 400 nM | – | – | – | – | O=C(COc1ccc2cc1CCc1cncc(c1)Nc1ncc(Cl)c(n1)N2)N1CCN(C(=O)c2ccc(F)cc2F)CC1 [Example D259, 6-Chloro-12-{2-[4-(2,4-difluorobenzoyl)piperazin-1-yl]-2-oxoethoxy}-2,4,8,18,22-pentaazatetracyclo[14.3.1.1(3,7).1(9,13)]docosa-1(20),3(22),4,6,9(21),10,12,16,18-nonaene bis(trifluoroacetate)] |
| 288 nM | 90 nM | > 400 nM | > 400 nM | – | – | – | – | N#Cc1ccc(N2CCN(C(=O)COc3ccc4cc3CCc3cncc(c3)Nc3ncc(Cl)c(n3)N4)CC2)cc1 [Example D236, 4-[4-({[6-Chloro-2,4,8,18,22-pentaazatetracyclo[14.3.1.1(3,7).1(9,13)]docosa-1(20),3(22),4,6,9(21),10,12,16,18-nonaen-12-yl]oxy}acetyl)piperazin-1-yl]benzonitrile tris(trifluoroacetate)] |
| 22 nM | 6.1 nM | 300 nM | > 400 nM | – | – | – | – | O=C(COc1ccc2cc1CCc1cncc(c1)Nc1ncc(Cl)c(n1)N2)N1CCN(C(=O)Nc2ccccc2)CC1 [Example D264, 4-({[6-Chloro-2,4,8,18,22-pentaazatetracyclo[14.3.1.1(3,7).1(9,13)]docosa-1(20),3(22),4,6,9(21),10,12,16,18-nonaen-12-yl]oxy}acetyl)-N-phenylpiperazine-1-carboxamide bis(trifluoroacetate)] |
| 113 nM | 70 nM | > 400 nM | > 400 nM | – | – | – | – | O=C(COc1ccc2cc1CCc1cncc(c1)Nc1ncc(Cl)c(n1)N2)N1CCC(c2nc(-c3cccs3)no2)CC1 [Example D258, 6-Chloro-12-(2-oxo-2-{4-[3-(2-thienyl)-1,2,4-oxadiazol-5-yl]piperidin-1-yl}ethoxy)-2,4,8,18,22-pentaazatetracyclo[14.3.1.1(3,7).1(9,13)]docosa-1(20),3(22),4,6,9(21),10,12,16,18-nonaene bis(trifluoroacetate)] |

Second part, the compound before the results:

| Compound | IC50 ([1]; Table D1) | IC50 ([2]; Table D1) | IC50 ([3]; Table D1) | IC50 ([4]; Table D1) | IC50 [1] | IC50 [2] | IC50 [3] | IC50 [4] |
| --- | --- | --- | --- | --- | --- | --- | --- | --- |
| O=C(COc1ccc2cc1CCc1cncc(c1)Nc1ncc(Cl)c(n1)N2)N1CCN(Cc2cccnc2)CC1 [Example D255, 6-Chloro-12-{2-oxo-2-[4-(pyridin-3-ylmethyl)piperazin-1-yl]ethoxy}-2,4,8,18,22-pentaazatetracyclo[14.3.1.1(3,7).1(9,13)]docosa-1(20),3(22),4,6,9(21),10,12,16,18-nonaene tris(trifluoroacetate)] | 226 nM | 90 nM | > 400 nM | > 400 nM | – | – | – | – |
| O=C(Nc1ccccc1)N1CCN(c2ccc3cc2CCc2cccc(c2)Nc2ncc(Cl)c(n2)N3)CC1 [Example D92, 4-[6-Chloro-2,4,8,22-tetraazatetracyclo[14.3.1.1(3,7).1(9,13)]docosa-1(20),3(22),4,6,9(21),10,12,16,18-nonaen-12-yl]-N-phenylpiperazine-1-carboxamide bis(trifluoroacetate)] | 4.9 nM | 16 nM | 25 nM | 36 nM | – | – | – | – |
| CS(=O)(=O)N1CC(CC(=O)Nc2ccc3cc2CCc2cncc(c2)Nc2ncc(Cl)c(n2)N3)C1 [Example D146, N-[6-Chloro-2,4,8,18,22-pentaazatetracyclo[14.3.1.1(3,7).1(9,13)]docosa-1(20),3(22),4,6,9(21),10,12,16,18-nonaen-12-yl]-2-[1-(methylsulfonyl)azetidin-3-yl]acetamide bis(trifluoroacetate)] | 149 nM | 24 nM | 270 nM | > 1000 nM | – | – | – | – |
| O=C(Nc1ccccc1)N1CCC(COc2ccc3cc2CCc2cncc(c2)Nc2ncc(Cl)c(n2)N3)C1 (centres unmarked) [Example C59, 3-({[6-Chloro-2,4,8,18,22-pentaazatetracyclo[14.3.1.1(3,7).1(9,13)]docosa-1(20),3(22),4,6,9(21),10,12,16,18-nonaen-12-yl]oxy}methyl)-N-phenylpyrrolidine-1-carboxamide bis(trifluoroacetate)] | – | – | – | – | > 400 nM | 102 nM | 371 nM | > 400 nM |
| O=C(Cc1nc2ccccc2[nH]1)Nc1ccc2cc1CCc1cccc(c1)Nc1ncc(Cl)c(n1)N2 [Example C44, 2-(1H-Benzimidazol-2-yl)-N-[6-chloro-2,4,8,22-tetraazatetracyclo[14.3.1.1(3,7).1(9,13)]docosa-1(20),3(22),4,6,9(21),10,12,16,18-nonaen-12-yl]acetamide bis(trifluoroacetate)] | – | – | – | – | 53 nM | 70 nM | 478 nM | 779 nM |
| O=C(C[C@@H]1CCN(c2nc3cccnc3o2)C1)Nc1ccc2cc1CCc1cncc(c1)Nc1ncc(Cl)c(n1)N2 [Example D140, N-[6-Chloro-2,4,8,18,22-pentaazatetracyclo[14.3.1.1(3,7).1(9,13)]docosa-1(20),3(22),4,6,9(21),10,12,16,18-nonaen-12-yl]-2-[(3S)-1-[1,3]oxazolo[5,4-b]pyridin-2-ylpyrrolidin-3-yl]acetamide tris(trifluoroacetate)] | 83 nM | 8.6 nM | 226 nM | > 1000 nM | – | – | – | – |
| O=C(C[C@H]1CCCN(C(=O)c2ccccc2)C1)Nc1ccc2cc1CCc1cncc(c1)Nc1ncc(Cl)c(n1)N2 [Example D207, 2-[(3R)-1-Benzoylpiperidin-3-yl]-N-[6-chloro-2,4,8,18,22-pentaazatetracyclo[14.3.1.1(3,7).1(9,13)]docosa-1(20),3(22),4,6,9(21),10,12,16,18-nonaen-12-yl]acetamide bis(trifluoroacetate)] | 5.4 nM | 9.4 nM | 56 nM | 109 nM | – | – | – | – |
| O=C(c1cccs1)N1Cc2cccc(c2)Nc2ncc(Cl)c(n2)Nc2cccc1c2 [Example C25, 6-Chloro-14-(2-thienylcarbonyl)-2,4,8,14,22-pentaazatetracyclo[14.3.1.1(3,7).1(9,13)]docosa-1(20),3(22),4,6,9(21),10,12,16,18-nonaene] | – | – | – | – | 173 nM | 91 nM | 793 nM | > 10000 nM |
| O=C(c1ccncc1)N1CCC(CCOc2ccc3cc2CCc2cncc(c2)Nc2ncc(Cl)c(n2)N3)CC1 [Example D181, 6-Chloro-12-[2-(1-isonicotinoylpiperidin-4-yl)ethoxy]-2,4,8,18,22-pentaazatetracyclo[14.3.1.1(3,7).1(9,13)]docosa-1(20),3(22),4,6,9(21),10,12,16,18-nonaene tris(trifluoroacetate)] | 313 nM | 115 nM | > 400 nM | > 400 nM | – | – | – | – |
| CN1CCN(Cc2cc3cc(c2)Nc2ncc(Cl)c(n2)Nc2cccc(c2)OCC3)CC1 [Example D190, 6-Chloro-19-[(4-methylpiperazin-1-yl)methyl]-14-oxa-2,4,8,23-tetraazatetracyclo[15.3.1.1(3,7).1(9,13)]tricosa-1(21),3(23),4,6,9(22),10,12,17,19-nonaene tris(trifluoroacetate)] | 0.9 nM | 24 nM | 3.5 nM | 3 nM | – | – | – | – |

From patent US8871753B2, “Macrocyclic compounds and their use as kinase inhibitors” (Incyte Corporation, priority 2008, dated 2014)
